Results on nine compounds are retold here after patent US8648115B2 (priority 2009, dated 2014).

The test system of data set [1] is Phytophthora infestans. Format: in vivo. To be noted: 3 days after inoculation.
Data set [2] deals with Potato plants (Solanum tuberosum L. cv. Désirée). The conditions noted are these: in vivo.
In data set [3] the test system is Phytophthora infestans. The data set can be described thus: microbe, parasite or virus in culture. Format: cell-based.
Data set [4] deals with Phytophthora infestans. Format: cell-based. The conditions noted are these: lower concentrations (1-100 μM drops); three-week old mycelium; 24 h.
Data set [5] concerns Phytophthora infestans. The data set can be described thus: microbe, parasite or virus in culture. To be noted: for IC50: Phytophthora infestans, read-out: Phytophtora infestans (mycelial growth) IC 50. Format: cell-based.
Another data set deals with Colletotrichum coccodes. The data set can be described thus: Colletotrichum coccodes mycelial growth bioassay (OD590). Format: cell-based. As for the experimental part:
FIG. 6: Inhibitory effect of (E)-4-oxohexadec-2-enoic acid on the mycelial growth of Colletotrichum coccodes. One-day old mycelium in 96-well plates was inoculated with different (E)-4-oxohexadec-2-enoic acid concentrations. The growth of C. coccodes was determined by measuring the OD590. The experiment was repeated twice, with identical results.
C. coccodes (CBS369.75) was grown for five days in 50 ml of liquid soybean medium in the dark at 18° C. on a rotary shaker. In order to isolate spores, all of the culture was centrifuged for 5 min at 2100 g and 4° C. The supernatant, which contained the spores, was recentrifuged (10 min, 6500 g, 4° C.). After the supernatant had been decantered off, the pelleted spores were washed carefully in deionized water, centrifuged as above and finally the spore concentration was adjusted to 1×10^5 spores/ml in soybean medium. To carry out the biotest, 200 μl of this spore solution were pipetted into each well of a 96-well plate (Nunc A/S, Denmark). The plates were incubated in an incubator for 24 h at 17° C. in the dark to allow germination. Then, test concentrations of (E)-4-oxohexadec-2-enoic acid were pipetted in as described above, with final concentrations of from 0.01 μM to 100 μM and 2% (v/v) ethanol. The plates were returned into the incubator and the increase in fungal biomass was determined by daily OD590 measurements.
To determine whether (E)-4-oxohexadec-2-enoic acid also has an inhibitory effect on the ascomycete c. coccodes, the causative organism of, inter alia, black dot disease of potato, a multiwell bioassay was set up. The growth of the fungus in liquid medium was determined on the basis of the measurement of the optical density (OD590). A medium containing soya was used for this purpose. One-day old mycelium was inoculated together with various concentrations of (E)-4-oxohexadec-2-enoic acid, and the growth of C. coccodes was determined every 24 h. […] Increasing concentrations reduced the fungal growth even further.

The mark [6] stands for this setting: Phytophthora infestans, read-out: Phytophthora infestans (spore germination) IC 50, spore germination.
[7] abbreviates: read-out: Phytophthora infestans (spore germination) IC 50, spore germination.

Several values for one entry are separate records, joined by “and”; a condition that tells them apart may be missing. Equal entries are not always repeated. Where two headings read alike, the source gives them in different places.

For `CCCCCCCCCCCCC(=O)/C=C/C(=O)[O-].[Na+]` [sodium (E)-4-oxohexadec-2-enoate, Sodium (E)-4-oxohexadec-2-enoate], the “Inhibition of infection with P. infestans compared with untreated control plants” value with Phytophthora infestans [1] (10 μM spray 2 h before inoculation) was determined as 80%; in the data set on Phytophthora infestans [1] (100 μM spray 2 h before inoculation) it was 95%. Besides, the “Toxic effects on the leaves” value in data set [2] is listed as “no toxic effects on the leaves”.
In the case of `CCCCCC(=O)/C=C/C(=O)O` [drawing 6], the IC50 with Phytophthora infestans [3] (setting [6]) was 14 nM.
Consider `CCCCCCCCCCCCCCCCCCC(=O)/C=C/C(=O)O`, for which the IC50 in the data set on Phytophthora infestans [3] (setting [6]) is 100 nM and 0.035 µg/mL.
As to `CCCCCCCCCCCCC(=O)/C=C/C(=O)O` [(E)-4-oxohexadec-2-enoic acid], the “Viability of mature mycelium” value with Phytophthora infestans [4] was “clear negative effect on mycelia viability”. For the same compound, in the data set with Phytophthora infestans [5] (1 mM, one-day old mycelium), the “Mycelial growth (GFP fluorescence)” value was “growth was inhibited”. In addition, the Spore germination result in the data set with Phytophthora infestans [3] (10 nM, 24 h) is “reduced”; with Phytophthora infestans [3] (3.7 μM, 24 h), “prevented completely”. In addition, the “Reduction of spore germination compared with the ethanol control” value with Phytophthora infestans [3] (100 nM, 24 h) is listed as “more than 50%”. Further, the Spores germinated with Phytophthora infestans [3] (1 μM, 24 h) is < 10%. In addition, the Spore lysis result in the data set with Phytophthora infestans [3] (100 μM) is listed as “spore lysis was observed”. Moreover, in the data set on Phytophthora infestans [3] (increasing concentrations), the “Length of the germination tubes” value is reported as “had an effect on the length of the germination tubes”. Also, the “Growth of C. coccodes” value with Colletotrichum coccodes (0.01 μM) was “significant inhibitory effect”; in the data set on Colletotrichum coccodes (100 μM) it was “complete inhibition”. Further, the “Inhibition of growth of C. coccodes compared with the ethanol control” value with Colletotrichum coccodes (1 μM) is reported as “more than half”.
Consider `O=C(O)/C=C/C(=O)CCCCCCCCCCF`, for which the IC50 is 80 µM and 20.7 µg/mL in the data set with Phytophthora infestans [5]; 70 nM and 0.018 µg/mL in the data set with Phytophthora infestans [3] (setting [6]).
`CCCCCCCCCCCCC(=O)/C=C/C(=O)O` [drawing 8]: the IC50 was 450 µM and 121 µg/mL with Phytophthora infestans [5]; 70 nM and 0.0018 µg/mL in the data set with Phytophthora infestans [3] (setting [6]).
On to `CCCCCCCCCCCCC(=O)/C=C/C(=O)[O-].[K+]` [drawing 9], for which the IC50 is 0.018 µg/mL in the data set on Phytophthora infestans [3] (setting [6]) and 60 nM in the data set on Phytophthora infestans [3] (setting [7]).
The corresponding values for `CCCCCC(=O)/C=C/C(=O)O` [drawing 5] are 0.002 µg/mL and 12 nM.
`CCCC(=O)/C=C/C(=O)O`: the IC50 in the data set with Phytophthora infestans [3] (setting [6]) was 14 nM and 0.0019 µg/mL.
